The values that follow come from patent US8969294B2 (Istituto di Recerche di Biologia Molecolare P. Angeletti …, priority 2008, dated 2015).

The assay addresses glucagon receptor (Homo sapiens, UniProt P47871). The assay can be described thus: Functional assay, cAMP synthesis: luciferase reporter in HEK293 cells co-transfected with glucagon receptor. In general terms: A reporter such as luciferase makes a cellular process visible.
Where [1] appears, read: EC50 at the Glucagon receptor, Table 21.
The mark [2] stands for this setting: EC50 at Glucagon Receptor, Table 31.

Numbered stars: 1 amine (or outer) side, 2 acyl side, 3 side chain; on linkers, the order of the positions; unused ones are H or OH. Square brackets hold non-standard residues; d marks the D form. Side chains are listed from the residue outwards. Peptide text beside a SMILES is read from it. * marks the point of attachment. γGlu = O=C(O)[C@H](CCC(=O)[*:2])N[*:1]; Palmitoyl = CCCCCCCCCCCCCCCC(=O)*; Aib = CC(C)(N)C(=O)O

Chain of glucagon receptor (P47871 26-477): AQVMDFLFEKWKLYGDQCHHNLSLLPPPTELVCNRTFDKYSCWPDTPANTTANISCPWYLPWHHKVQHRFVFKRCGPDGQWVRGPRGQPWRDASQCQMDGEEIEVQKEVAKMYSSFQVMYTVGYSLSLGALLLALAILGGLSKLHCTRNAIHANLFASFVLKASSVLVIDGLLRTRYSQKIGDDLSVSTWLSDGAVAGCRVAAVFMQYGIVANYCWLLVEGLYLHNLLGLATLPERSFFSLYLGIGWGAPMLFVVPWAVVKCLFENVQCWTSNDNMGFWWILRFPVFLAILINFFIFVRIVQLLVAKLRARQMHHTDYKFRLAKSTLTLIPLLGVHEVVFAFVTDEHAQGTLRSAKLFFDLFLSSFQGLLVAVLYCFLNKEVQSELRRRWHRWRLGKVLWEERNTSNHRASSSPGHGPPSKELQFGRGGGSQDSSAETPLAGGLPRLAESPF
Experimental: Peptide absorbance readings were obtained from UV Absorbance measurements at 280 nm on a Genesys 6 Spectrophotometer (Thermo Electron Corporation). Beer's Law was used to calculate solution concentrations based on the number of tryptophan and tyrosine residues in each analog. At the end of the incubation, 100 μL LucLite luminescence substrate reagent was added to each well, the plate sealed and shaken, and placed into a Wallac Trilux luminescence counter for cAMP detection.
HEK293 cells were co-transfected with the GcgR or GLP-1R cDNAs and a luciferase reporter gene-linked to a cAMP response element (CRE). […] The plate was incubated for 10 min in the dark and light output was quantified on a MicroBeta1450 liquid scintillation counter (Perkin-Elmer, Wellesley, Mass.).

Broadly, the EC50 is the concentration giving half of the maximal effect. Read a high EC50 as weaker potency. On to `CCCCCCCCCCCCCCCCCC(=O)NCCCC[C@H](NC(=O)[C@H](CC(=O)O)NC(=O)[C@H](CO)NC(=O)[C@@H](NC(=O)[C@H](Cc1ccccc1)NC(=O)[C@@H](NC(=O)CNC(=O)[C@H](CCC(N)=O)NC(=O)C(C)(C)NC(=O)[C@@H](N)Cc1c[nH]cn1)[C@@H](C)O)[C@@H](C)O)C(=O)N[C@@H](CO)C(=O)N[C@@H](CCCCN)C(=O)N[C@@H](Cc1ccc(O)cc1)C(=O)N[C@@H](CC(C)C)C(=O)N[C@@H](CC(=O)O)C(=O)NC(C)(C)C(=O)N[C@@H](CCCNC(=N)N)C(=O)N[C@@H](CCCNC(=N)N)C(=O)N[C@@H](C)C(=O)N[C@@H](CCC(N)=O)C(=O)N[C@@H](CC(=O)O)C(=O)N[C@@H](Cc1ccccc1)C(=O)N[C@H](C(=O)N[C@@H](CCC(N)=O)C(=O)N[C@@H](Cc1c[nH]c2ccccc12)C(=O)N[C@@H](CC(C)C)C(=O)N[C@@H](CCSC)C(=O)N[C@@H](CC(N)=O)C(=O)N[C@H](C(N)=O)[C@@H](C)O)C(C)C` [AIB2, AIB16, K10(C18) Gluc Amide], for which the EC50 under setting [1] is 0.016 nM.
Compound `CCCCCCCCCCCCCCCC(=O)N[C@@H](CCC(=O)N[C@@H](CCC(=O)NCCCC[C@H](NC(=O)[C@H](CC(=O)O)NC(=O)[C@H](CO)NC(=O)[C@@H](NC(=O)[C@H](Cc1ccccc1)NC(=O)[C@@H](NC(=O)CNC(=O)[C@H](CCC(N)=O)NC(=O)C(C)(C)NC(=O)[C@@H](N)Cc1c[nH]cn1)[C@@H](C)O)[C@@H](C)CC)C(=O)N[C@@H](CO)C(=O)N[C@@H](CCCCN)C(=O)N[C@@H](Cc1ccc(O)cc1)C(=O)N[C@@H](CC(C)C)C(=O)N[C@@H](CC(=O)O)C(=O)N[C@@H](CCC(=O)O)C(=O)N[C@@H](CCC(N)=O)C(=O)N[C@@H](C)C(=O)N[C@@H](C)C(=O)N[C@@H](CCCCN)C(=O)N[C@@H](CCC(=O)O)C(=O)N[C@@H](Cc1ccccc1)C(=O)N[C@H](C(=O)N[C@@H](C)C(=O)N[C@@H](Cc1c[nH]c2ccccc12)C(=O)N[C@@H](CC(C)C)C(=O)N[C@@H](CCSC)C(=O)N[C@@H](CC(N)=O)C(=O)N[C@H](C(N)=O)[C@@H](C)O)[C@@H](C)CC)C(=O)O)C(=O)O` [compound 650] registered an EC50 under setting [2] of 0.007 nM.
Take `CCCCCCCCCCCCCCCC(=O)N[C@@H](Cc1c[nH]c2ccccc12)C(=O)NCCCC[C@H](NC(=O)[C@H](CC(=O)O)NC(=O)[C@H](CO)NC(=O)[C@@H](NC(=O)[C@H](Cc1ccccc1)NC(=O)[C@@H](NC(=O)CNC(=O)[C@H](CCC(N)=O)NC(=O)C(C)(C)NC(=O)[C@@H](N)Cc1c[nH]cn1)[C@@H](C)O)[C@@H](C)O)C(=O)N[C@@H](CO)C(=O)N[C@@H](CCCCN)C(=O)N[C@@H](Cc1ccc(O)cc1)C(=O)N[C@@H](CC(C)C)C(=O)N[C@@H](CC(=O)O)C(=O)NC(C)(C)C(=O)N[C@@H](CCCNC(=N)N)C(=O)N[C@@H](CCCNC(=N)N)C(=O)N[C@@H](C)C(=O)NC(C)(C)C(=O)N[C@@H](CC(=O)O)C(=O)N[C@@H](Cc1ccccc1)C(=O)N[C@H](C(=O)N[C@@H](CS)C(=O)N[C@@H](Cc1c[nH]c2ccccc12)C(=O)N[C@@H](CC(C)C)C(=O)N[C@@H](CCSC)C(=O)N[C@@H](CC(N)=O)C(=O)N[C@H](C(N)=O)[C@@H](C)O)C(C)C` (H-H[Aib]QGTFTSDK([Trp-Palmitoyl])SKYLD[Aib]RRA[Aib]DFVCWLMNT-NH2; N-terminus assumed): the midpoint of the response (Glucagon Receptor EC50, Table 20), the EC50, lay at 2.06 nM.
Regarding `CCCCCCCCCCCCCCCC(=O)NCCCC[C@H](NC(=O)[C@H](CC(=O)O)NC(=O)[C@H](CO)NC(=O)[C@@H](NC(=O)[C@H](Cc1ccccc1)NC(=O)[C@@H](NC(=O)CNC(=O)[C@H](CCC(=O)O)NC(=O)C(C)(C)NC(=O)[C@@H](N)Cc1c[nH]cn1)[C@@H](C)O)[C@@H](C)O)C(=O)N[C@@H](CO)C(=O)N[C@@H](CCCCN)C(=O)N[C@@H](Cc1ccc(O)cc1)C(=O)N[C@@H](CC(C)C)C(=O)N[C@@H](CC(=O)O)C(=O)N[C@@H](CCC(=O)O)C(=O)N[C@@H](CCC(N)=O)C(=O)N[C@@H](C)C(=O)N[C@@H](C)C(=O)N[C@@H](CCCCN)C(=O)N[C@@H](CCC(=O)O)C(=O)N[C@@H](Cc1ccccc1)C(=O)N[C@H](C(=O)N[C@@H](C)C(=O)N[C@@H](Cc1c[nH]c2ccccc12)C(=O)N[C@@H](CC(C)C)C(=O)N[C@@H](CCSC)C(=O)N[C@@H](CC(N)=O)C(=O)N[C@H](C(N)=O)[C@@H](C)O)[C@@H](C)CC` [compound 647] (H-H[Aib]EGTFTSDK(Palmitoyl)SKYLDEQAAKEFIAWLMNT-NH2; N-terminus assumed), under setting [2], the EC50 amounted to 46.1 nM.
Consider `CCCCCCCCCCCCCCCC(=O)NCCCC[C@H](NC(=O)[C@H](CC(=O)O)NC(=O)[C@H](CO)NC(=O)[C@@H](NC(=O)[C@H](Cc1ccccc1)NC(=O)[C@@H](NC(=O)CNC(=O)[C@H](CCC(N)=O)NC(=O)[C@H](CO)NC(=O)[C@@H](N)Cc1c[nH]cn1)[C@@H](C)O)[C@@H](C)O)C(=O)N[C@@H](CO)C(=O)N[C@@H](CCCCN)C(=O)N[C@@H](Cc1ccc(O)cc1)C(=O)N[C@@H](CC(C)C)C(=O)N[C@@H](CC(=O)O)C(=O)N[C@@H](CCC(=O)O)C(=O)N[C@@H](CCCNC(=N)N)C(=O)N[C@@H](CCCNC(=N)N)C(=O)N[C@@H](C)C(=O)N[C@@H](CCCCN)C(=O)N[C@@H](CC(=O)O)C(=O)N[C@@H](Cc1ccccc1)C(=O)N[C@H](C(=O)N[C@@H](CCC(N)=O)C(=O)N[C@@H](Cc1c[nH]c2ccccc12)C(=O)N[C@@H](CC(C)C)C(=O)N[C@@H](CCSC)C(=O)N[C@@H](CC(N)=O)C(=O)N[C@H](C(N)=O)[C@@H](C)O)C(C)C` [E16 K20-glucagon-NH2 with K^10—C16], for which the EC50 by setting is: (EC50, Glucagon Receptor, Table 13) 0.4 nM; (EC50 at Glucagon Receptor, Table 17) 0.236 nM.
`CCCCCCCCCCCCCCCC(=O)N[C@@H](CCC(=O)NCCCC[C@H](NC(=O)[C@H](CC(=O)O)NC(=O)[C@H](CO)NC(=O)[C@@H](NC(=O)[C@H](Cc1ccccc1)NC(=O)[C@@H](NC(=O)CNC(=O)[C@H](CCC(N)=O)NC(=O)C(C)(C)NC(=O)[C@@H](N)Cc1cnc[nH]1)[C@@H](C)O)[C@@H](C)O)C(=O)N[C@@H](CO)C(=O)N[C@@H](CCCCN)C(=O)N[C@@H](Cc1ccc(O)cc1)C(=O)N[C@@H](CC(C)C)C(=O)N[C@@H](CC(=O)O)C(=O)NC(C)(C)C(=O)N[C@@H](CCCNC(=N)N)C(=O)N[C@@H](C)C(=O)N[C@@H](C)C(=O)N[C@@H](CCC(N)=O)C(=O)N[C@@H](CC(=O)O)C(=O)N[C@@H](Cc1ccccc1)C(=O)N[C@H](C(=O)N[C@@H](CCC(N)=O)C(=O)N[C@@H](Cc1c[nH]c2ccccc12)C(=O)N[C@@H](CC(C)C)C(=O)N[C@@H](CCSC)C(=O)N[C@@H](CC(=O)O)C(=O)N[C@H](C(N)=O)[C@@H](C)O)C(C)C)C(=O)O` [compound 656]: the EC50 under setting [2] is 0.006 nM.
On the same count and under the same terms, the result for `CCCCCCCCCCCCCCCC(=O)N[C@@H](CCC(=O)N[C@@H](CCC(=O)NCCCC[C@H](NC(=O)[C@H](CC(=O)O)NC(=O)[C@H](CO)NC(=O)[C@@H](NC(=O)[C@H](Cc1ccccc1)NC(=O)[C@@H](NC(=O)CNC(=O)[C@H](CCC(=O)O)NC(=O)C(C)(C)NC(=O)[C@@H](N)Cc1c[nH]cn1)[C@@H](C)O)[C@@H](C)O)C(=O)N[C@@H](CO)C(=O)N[C@@H](CCCCN)C(=O)N[C@@H](Cc1ccc(O)cc1)C(=O)N[C@@H](CC(C)C)C(=O)N[C@@H](CC(=O)O)C(=O)N[C@@H](CCC(=O)O)C(=O)N[C@@H](CCC(N)=O)C(=O)N[C@@H](C)C(=O)N[C@@H](C)C(=O)N[C@@H](CCCCN)C(=O)N[C@@H](CCC(=O)O)C(=O)N[C@@H](Cc1ccccc1)C(=O)N[C@H](C(=O)N[C@@H](C)C(=O)N[C@@H](Cc1c[nH]c2ccccc12)C(=O)N[C@@H](CC(C)C)C(=O)N[C@@H](CCSC)C(=O)N[C@@H](CC(N)=O)C(=O)N[C@H](C(N)=O)[C@@H](C)O)[C@@H](C)CC)C(=O)O)C(=O)O` [compound 648] (H-H[Aib]EGTFTSDK([γGlu-γGlu-Palmitoyl])SKYLDEQAAKEFIAWLMNT-NH2; N-terminus assumed) reads 2.92 nM; that for `CCCCCCCCCCCCCCCC(=O)N[C@@H](CCC(=O)N[C@@H](CCC(=O)NCCCC[C@H](NC(=O)[C@H](CC(=O)O)NC(=O)[C@H](CO)NC(=O)[C@@H](NC(=O)[C@H](Cc1ccccc1)NC(=O)[C@@H](NC(=O)CNC(=O)[C@H](CCC(N)=O)NC(=O)[C@@H](CO)NC(=O)[C@@H](N)Cc1c[nH]cn1)[C@@H](C)O)[C@@H](C)O)C(=O)N[C@@H](CO)C(=O)N[C@@H](CCCCN)C(=O)N[C@@H](Cc1ccc(O)cc1)C(=O)N[C@@H](CC(C)C)C(=O)N[C@@H](CC(=O)O)C(=O)N[C@@H](CCC(=O)O)C(=O)N[C@@H](CCC(N)=O)C(=O)N[C@@H](C)C(=O)N[C@@H](C)C(=O)N[C@@H](CCCCN)C(=O)N[C@@H](CCC(=O)O)C(=O)N[C@@H](Cc1ccccc1)C(=O)N[C@H](C(=O)N[C@@H](C)C(=O)N[C@@H](Cc1c[nH]c2ccccc12)C(=O)N[C@@H](CC(C)C)C(=O)N[C@@H](CCSC)C(=O)N[C@@H](CC(N)=O)C(=O)N[C@H](C(N)=O)[C@@H](C)O)[C@@H](C)CC)C(=O)O)C(=O)O` [compound 644], 0.008 nM.
Turning to `CCCCCCCCCCCCCCCC(=O)NCCCC[C@H](NC(=O)[C@H](CC(=O)O)NC(=O)[C@H](CO)NC(=O)[C@@H](NC(=O)[C@H](Cc1ccccc1)NC(=O)[C@@H](NC(=O)CNC(=O)[C@H](CCC(N)=O)NC(=O)C(C)(C)NC(=O)[C@@H](N)Cc1c[nH]cn1)[C@@H](C)O)[C@@H](C)O)C(=O)N[C@@H](CO)C(=O)N[C@@H](CCCCN)C(=O)N[C@@H](Cc1ccc(O)cc1)C(=O)N[C@@H](CC(C)C)C(=O)N[C@@H](CC(=O)O)C(=O)NC(C)(C)C(=O)N[C@@H](CCCNC(=N)N)C(=O)N[C@@H](CCCNC(=N)N)C(=O)N[C@@H](C)C(=O)N[C@@H](CCC(N)=O)C(=O)N[C@@H](CC(=O)O)C(=O)N[C@@H](Cc1ccccc1)C(=O)N[C@H](C(=O)N[C@@H](CCC(N)=O)C(=O)N[C@@H](Cc1c[nH]c2ccccc12)C(=O)N[C@@H](CC(C)C)C(=O)N[C@@H](CCSC)C(=O)N[C@@H](CC(N)=O)C(=O)N[C@H](C(N)=O)[C@@H](C)O)C(C)C` [AIB2, AIB16, K10(C16) Gluc Amide], the EC50 turned out to be 0.023 nM (EC50 at Glucagon Receptor (20% human plasma), Table 28, 20% human plasma); 0.052 nM (EC50 at Glucagon Receptor, Table 28); 0.02 nM under setting [1].
